Paper PMC3720812, “YjcC, a c-di-GMP Phosphodiesterase Protein, Regulates the Oxidative Stress Response and Virulence of Klebsiella pneumoniae CG43” (PLoS ONE, 2013)

Legend:
MrkJ = biological target: T1, MrkJ (Klebsiella pneumoniae, UniProt G3FT02); assay: release of p-nitrophenol at […] nm; type: biochemical; settings: positive control enzyme; activity only in figure
T1 construct: recombinant from pET30b-mrkJ, E. coli BL21(DE3), purified

YjcC-EAL domain = biological target: T2, YjcC-EAL domain (Klebsiella pneumoniae, UniProt A6TGY2); assay: release of p-nitrophenol at […] nm; type: biochemical; settings: chromogenic model substrate; activity only in figure
T2 construct: EAL domain only (C-terminal)
T2 sequence (A6TGY2 entry or part of it): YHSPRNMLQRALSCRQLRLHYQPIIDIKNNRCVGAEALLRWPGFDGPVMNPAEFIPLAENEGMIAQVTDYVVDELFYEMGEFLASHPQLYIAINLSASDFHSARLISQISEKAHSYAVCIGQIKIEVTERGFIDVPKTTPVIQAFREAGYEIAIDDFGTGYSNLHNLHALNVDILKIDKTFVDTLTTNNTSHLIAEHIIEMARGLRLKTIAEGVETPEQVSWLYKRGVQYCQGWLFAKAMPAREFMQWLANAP

T1 sequence (G3FT02 entry or part of it): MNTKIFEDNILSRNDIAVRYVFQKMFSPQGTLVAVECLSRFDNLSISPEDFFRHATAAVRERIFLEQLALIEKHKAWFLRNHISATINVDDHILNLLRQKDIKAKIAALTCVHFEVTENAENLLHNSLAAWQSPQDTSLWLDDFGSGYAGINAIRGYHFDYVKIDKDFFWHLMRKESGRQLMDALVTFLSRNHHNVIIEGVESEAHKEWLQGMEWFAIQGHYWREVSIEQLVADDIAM

For `O=[N+]([O-])c1ccc(OP(=O)(O)Oc2ccc([N+](=O)[O-])cc2)cc1` [bis(p-nitrophenyl) phosphate], the “specific PDE activity” value (MrkJ) was “This activity is lower than the level of the recombinant MrkJ” and the “specific PDE activity” value (YjcC-EAL domain) was “the purified EAL domain protein exhibits PDE activity towards pNpp”.
